19 compounds from patent publication US20240226107A1, “UBIQUITIN-SPECIFIC PROTEASE 1 (USP1) INHIBITOR” (SIMCERE ZAIMING PHARMACEUTICAL CO., LTD., priority 2021, published 2024) can be followed below.

pIC50: −log10 of the molar value.

The term pIC50 denotes the negative decadic logarithm of the IC50, by convention in mol/L. By GI50 is commonly meant the concentration at which growth is held to half of that of the control. Higher therefore signals lower sensitivity of the cells.

In the first test the target is USP1 (Recombinant Human His6-USP1/His6-UAF1 Complex Protein) (Homo sapiens (Human), UniProt O94782). Nature of the test: In vitro activity assay for USP1 (Ub-CHOP2-Reporter deubiquitination assay). Format: biochemical. To be noted: 0.5 h incubation at room temperature, read-out: In vitro inhibitory activity of USP1 IC50. On the procedure: The assay kit (Ub-CHOP2-Reporter Deubiquitination Assay Kit) was purchased from Lifesensors, with Cat. No. of PR1101. The assay kit was subpackaged and stored at −80° C.
USP1 (Recombinant Human His6-USP1/His6-UAF1 Complex Protein), sequence (O94782 whole entry): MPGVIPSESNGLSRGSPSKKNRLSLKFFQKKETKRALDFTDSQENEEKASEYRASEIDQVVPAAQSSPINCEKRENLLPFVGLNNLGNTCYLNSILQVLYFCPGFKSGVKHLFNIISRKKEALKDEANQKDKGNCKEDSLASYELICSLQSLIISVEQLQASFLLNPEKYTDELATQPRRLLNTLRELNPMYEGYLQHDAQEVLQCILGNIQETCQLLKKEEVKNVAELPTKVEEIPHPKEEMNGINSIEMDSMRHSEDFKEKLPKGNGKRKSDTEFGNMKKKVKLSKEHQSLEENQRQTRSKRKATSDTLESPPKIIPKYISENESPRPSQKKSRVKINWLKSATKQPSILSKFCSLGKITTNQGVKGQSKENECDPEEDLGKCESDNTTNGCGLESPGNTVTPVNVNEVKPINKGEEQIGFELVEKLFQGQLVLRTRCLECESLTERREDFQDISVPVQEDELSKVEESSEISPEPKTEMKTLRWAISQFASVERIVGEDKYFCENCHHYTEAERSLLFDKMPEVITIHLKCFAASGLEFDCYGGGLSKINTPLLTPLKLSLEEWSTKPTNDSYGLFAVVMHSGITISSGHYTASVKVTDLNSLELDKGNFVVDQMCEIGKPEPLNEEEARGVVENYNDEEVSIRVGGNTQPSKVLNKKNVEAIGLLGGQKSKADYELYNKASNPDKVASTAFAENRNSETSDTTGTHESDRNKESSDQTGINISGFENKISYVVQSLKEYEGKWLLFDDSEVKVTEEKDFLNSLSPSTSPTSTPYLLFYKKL
USP1 (Recombinant Human His6-USP1/His6-UAF1 Complex Protein), sequence (Q8TAF3 whole entry partner): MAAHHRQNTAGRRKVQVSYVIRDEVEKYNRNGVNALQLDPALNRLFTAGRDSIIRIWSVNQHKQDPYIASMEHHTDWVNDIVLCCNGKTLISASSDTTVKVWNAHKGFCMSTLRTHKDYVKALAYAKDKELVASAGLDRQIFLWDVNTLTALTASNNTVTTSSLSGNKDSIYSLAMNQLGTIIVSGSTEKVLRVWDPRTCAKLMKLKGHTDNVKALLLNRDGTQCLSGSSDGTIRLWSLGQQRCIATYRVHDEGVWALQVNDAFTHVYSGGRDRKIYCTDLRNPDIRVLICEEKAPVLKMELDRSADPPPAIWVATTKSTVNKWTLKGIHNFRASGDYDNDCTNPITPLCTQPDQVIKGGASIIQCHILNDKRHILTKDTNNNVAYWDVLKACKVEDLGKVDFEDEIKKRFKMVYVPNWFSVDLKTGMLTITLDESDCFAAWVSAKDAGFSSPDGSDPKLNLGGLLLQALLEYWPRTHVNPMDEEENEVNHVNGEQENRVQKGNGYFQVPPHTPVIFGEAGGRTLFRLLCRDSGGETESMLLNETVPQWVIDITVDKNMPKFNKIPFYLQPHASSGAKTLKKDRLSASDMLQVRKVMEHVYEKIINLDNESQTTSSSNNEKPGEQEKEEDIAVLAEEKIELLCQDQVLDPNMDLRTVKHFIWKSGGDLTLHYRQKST
Each compound to be tested was dissolved with DMSO to 10 mM. The compound and pure DMSO (with a total volume of 50 nL) were loaded to each well of the 384-well plate by using an ECHO instrument to obtain gradient-diluted sample concentrations at different ratios. The enzyme was diluted with a freshly prepared reaction solution (20 mM Tris-HCl (pH 8.0), 2 mM CaCl2, 2 mM β-mercaptoethanol, 0.05% CHAPS, and ddH2O). To each well, 5 μL of diluted enzyme reaction solution was added, then the plate was centrifuged and oscillated to mix the enzyme and the compound, and the mixture was centrifuged again and placed on ice. The kit reporter system and the substrate were diluted with the reaction solution, then 5 μL of diluted liquid was added to each well, and mixed by centrifugation. The mixture was incubated at room temperature for 0.5 h. […] The inhibitory activity (IC50 values) of the compound on enzyme activity was calculated by using a four-parameter Logistic Model. […] A, B, C, and D are four parameters.
Consider `CC(C)c1ncccc1-c1ncc2c(n1)N(Cc1ccc(-c3nc(C(F)(F)F)cn3C)cc1)CCO2` [Compound 1, 2-(2-isopropylpyridin-3-yl)-8-(4-(1-methyl-4-(trifluoromethyl)-1H-imidazol-2-yl)benzyl)-7,8-dihydro-6H-pyrimido[5,4-b][1,4]oxazine], for which the pIC50 is 7.74.
`CC(C)c1ncccc1-c1ncc2c(n1)N(Cc1ccc(-c3nc(C(F)(F)F)cn3C)cc1)CC(=O)N2` [Compound 4, 2-(2-isopropylpyridin-3-yl)-8-(4-(1-methyl-4-(trifluoromethyl)-1H-imidazol-2-yl)benzyl)-7,8-dihydropteridin-6(5H)-one]: the pIC50 is 7.36.
Turning to `COc1ncnc(C2CC2)c1-c1ncc2c(n1)N(Cc1ccc3c(c1)CCCn1cc(C(F)(F)F)nc1-3)CC(=O)N2C(C)C` [Compound 47, 2-(4-cyclopropyl-6-methoxypyrimidin-5-yl)-5-isopropyl-8-((2-(trifluoromethyl)-6,7-dihydro-5H-benzo[c]imidazo[1,2-a]azepin-9-yl)methyl)-7,8-dihydropteridin-6(5H)-one], the pIC50 is 7.34.
The same measure, in the same setting: the result for `COc1ncnc(C2CC2)c1-c1ncc2c(n1)N(Cc1ccc3c(c1)CCCn1cc(C(F)(F)F)nc1-3)CC(=O)N2C1CC1` [Compound 48, 5-cyclopropyl-2-(4-cyclopropyl-6-methoxypyrimidin-5-yl)-8-((2-(trifluoromethyl)-6,7-dihydro-5H-benzo[c]imidazo[1,2-a]azepin-9-yl)methyl)-7,8-dihydropteridin-6-(5H)-one] reads 7.58; that for `COc1ncnc(C2CC2)c1-c1ncc2c(n1)N(Cc1ccc(-c3nc(C(F)(F)F)cn3C)c(F)c1)C(=O)OC2(C)C` [Compound 49, 7-(4-cyclopropyl-6-methoxypyrimidin-5-yl)-4,4-dimethyl-1-(3-fluoro-4-(1-methyl-4-(trifluoromethyl)-1H-imidazol-2-yl)benzyl)-1,4-dihydro-2H-pyrimido[4,5-d][1,3]oxazin-2-one], 7.48; that for `COc1ncnc(C2CC2)c1-c1ncc2c(n1)N(Cc1ccc(-c3nc(C(F)(F)F)cn3C)c(F)c1)C(=O)OC21CC1` [Compound 51, 7′-(4-cyclopropyl-6-methoxypyrimidin-5-yl)-1′-(3-fluoro-4-(1-methyl-4-(trifluoromethyl)-1H-imidazol-2-yl)benzyl)spiro[cyclopropane-1,4′-pyrimido[4,5-d][1,3]oxazine]-2′(1′H)-one], 7.86.
The same measure, in the same setting: next, `COc1ncnc(C2CC2)c1-c1ncc2c(n1)N(Cc1ccc(-n3nc(C(F)(F)F)cc3C)cc1)C(=O)OC21CC1` [Compound 53, 7′-(4-cyclopropyl-6-methoxypyrimidin-5-yl)-1′-(4-(5-methyl-3-(trifluoromethyl)-1H-pyrazol-1-yl)benzyl)spiro[cyclopropane-1,4′-pyrimido[4,5-d][1,3]oxazine]-2′(1′H)-one]: 8.05.
Same read-out and setting: the result for `COc1ncnc(C2CC2)c1-c1ncc2c(n1)N(Cc1ccc(-n3nc(C(F)(F)F)cc3C)cc1)C(=O)OC21COC1` [Compound 54, 7′-(4-cyclopropyl-6-methoxypyrimidin-5-yl)-1′-(4-(5-methyl-3-(trifluoromethyl)-1H-pyrazol-1-yl)benzyl)spiro[oxetane-3,4′-pyrimido[4,5-d][1,3]oxazine]-2′(1′H)-one] reads 7.63.
Consider `COc1ncnc(C2CC2)c1-c1ncc2c(n1)N(Cc1ccc(-n3nc(C(F)(F)F)cc3C)cc1)C(=O)OC21CCC1` [Compound 55, 7′-(4-cyclopropyl-6-methoxypyrimidin-5-yl)-1′-(4-(5-methyl-3-(trifluoromethyl)-1H-pyrazol-1-yl)benzyl)spiro[cyclobutane-1,4′-pyrimido[4,5-d][1,3]oxazin]-2′(1′H)-one], for which the pIC50 was 8.06.
`C#CC1(C)OC(=O)N(Cc2ccc(-c3nc(C(F)(F)F)cn3C)c(F)c2)c2nc(-c3c(OC)ncnc3C3CC3)ncc21` (centres unmarked) [Compound 59, 7-(4-cyclopropyl-6-methoxypyrimidin-5-yl)-4-ethynyl-1-(3-fluoro-4-(1-methyl-4-(trifluoromethyl)-1H-imidazol-2-yl)benzyl)-4-methyl-1,4-dihydro-2H-pyrimido[4,5-d][1,3]oxazin-2-one]: the pIC50 was 7.87.
The same measure, in the same setting: next, `COc1ncnc(C2CC2)c1-c1ncc2c(n1)N(Cc1ccc(-c3nc(C(F)(F)F)cn3C)c(C(F)(F)F)c1)CCO2` [Compound 64]: 7.64; `COc1ncnc(C2CC2)c1-c1ncc2c(n1)N(Cc1ccc(-n3nc(C(F)(F)F)cc3C)cc1)CC(=O)N2C1CC1` [Compound 72, 2-(4-cyclopropyl-6-methoxypyrimidin-5-yl)-8-(4-(5-methyl-3-(trifluoromethyl)-1H-pyrazol-1-yl)benzyl)-5-cyclopropyl-7,8-dihydropteridin-6(5H)-one]: 7.42.
Same read-out and setting: the result for `Cc1cc(C(F)(F)F)nn1-c1ccc(CN2C(=O)OC(C)(C)c3cnc(-c4c(OC(F)F)ncnc4C4CC4)nc32)cc1` [Compound 75, 7-(4-cyclopropyl-6-difluoromethoxypyrimidin-5-yl)-4,4-dimethyl-1-(4-(5-methyl-3-(trifluoromethyl)-1H-pyrazol-1-yl)benzyl)-1,4-dihydro-2H-pyrimido[4,5-d][1,3]oxazin-2-one] reads 7.83; that for `COc1ncnc(C2CC2)c1-c1ncc2c(n1)N(Cc1ccc(-c3nc(C(F)(F)F)cn3C)c(F)c1)N(C)C(=O)N2C` [Compound 84, 7-(4-cyclopropyl-6-methoxypyrimidin-5-yl)-1-(3-fluoro-4-(1-methyl-4-(trifluoromethyl)-1H-imidazol-2-yl)benzyl)-2,4-dimethyl-1,4-dihydropyrimido[5,4-e][1,2,4]triazin-3(2H)-one], 7.16.

The test system of the next test is MDA-MB-436 cells.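 Also: MDA-MB-436 proliferation over 7 days with compound, viability read as ATP luminescence (CellTiter-Glo), inhibition relative to DMSO-only wells, day 0 signal as background, GI50 from four-parameter fit.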
Test: not given
Details: not given
As to `CC(C)c1ncccc1-c1ncc2c(n1)N(Cc1ccc(-c3nc(C(F)(F)F)cn3C)cc1)CCO2` [Compound 1, 2-(2-isopropylpyridin-3-yl)-8-(4-(1-methyl-4-(trifluoromethyl)-1H-imidazol-2-yl)benzyl)-7,8-dihydro-6H-pyrimido[5,4-b][1,4]oxazine], the GI50 came to 22.9 nM.
The same measure, in the same setting: next, `COc1ncnc(C2CC2)c1-c1ncc2c(n1)N(Cc1ccc(-c3nc(C(F)(F)F)cn3C)cc1)CCO2` [Compound 2, 2-(4-cyclopropyl-6-methoxypyrimidin-5-yl)-8-(4-(1-methyl-4-(trifluoromethyl)-1H-imidazol-2-yl)benzyl)-7,8-dihydro-6H-pyrimido[5,4-b][1,4]oxazine]: 20.9 nM; `COc1ncnc(C2CC2)c1-c1ncc2c(n1)N(Cc1ccc(-c3nc(C(F)(F)F)cn3C)cc1)C(=O)CO2` [Compound 6, 2-(4-cyclopropyl-6-methoxypyrimidin-5-yl)-8-(4-(1-methyl-4-(trifluoromethyl)-1H-imidazol-2-yl)benzyl)-6H-pyrimido [5,4-b][1,4]oxazin-7(8H)-one]: 420 nM; `COc1ncnc(C2CC2)c1-c1ncc2c(n1)N(Cc1ccc(-c3nc(C(F)(F)F)cn3C)cc1F)CCO2` [Compound 9, 2-(4-cyclopropyl-6-methoxypyrimidin-5-yl)-8-(2-fluoro-4-(1-methyl-4-(trifluoromethyl)-1H-imidazol-2-yl)benzyl)-7,8-dihydro-6H-pyrimido[5,4-b][1,4]oxazine]: 50.4 nM.
Same read-out and setting: next, `COc1ncnc(C2CC2)c1-c1ncc2c(n1)N(Cc1ccc(-c3nc(C(F)(F)F)cn3C)c(F)c1)CCO2` [Compound 32, 2-(4-cyclopropyl-6-methoxypyrimidin-5-yl)-8-(3-fluoro-4-(1-methyl-4-(trifluoromethyl)-1H-imidazol-2-yl)benzyl)-7,8-dihydro-6H-pyrimido[5,4-b][1,4]oxazine]: 11.4 nM; `Cc1cnc(-c2ccccc2C(C)C)nc1NCc1ccc(-n2ccnn2)cc1` [ML323, reference compound]: 1820 nM.
